# Measured values published in article PMC7815092, “The role of posttranslational modifications in generating neo-epitopes that bind to rheumatoid arthritis-associated HLA-DR alleles and promote autoimmune T cell responses” (PLoS ONE, 2021).
# Where a SMILES comes first, the peptide text is derived from it. Where no end group is shown, it is not given here. [ ]: non-standard residue; d: D form. Cit = NC(=O)NCCC[C@H](N)C(=O)O
# Columns and labels:
# HLA-DR1 (DRB1*01:01) = molecular target: T1, HLA-DR1 (DRB1*01:01) (Homo sapiens, UniProt P01903+P01911, A100R/D57E/F55L/F60I/F76Y/I96L/L162R/M171V/P40L/Q125E/R42F/V115G/Y59C); test: Competitive peptide binding assay to soluble HLA-DR1; details: competition with 0.5 nM biotinylated CII(257–274), 10 nM soluble DR1, 18 h at 37° C, time resolved fluorescence; duplicate, representative of 3 experiments
# T1 construct: a new stop codon was inserted immediately prior to the transmembrane domain; made in house; host or cells: Drosophila S2 cells, vector pRmHA-3, secreted, purified on an L227 antibody column
# Text: (§1) Soluble DR1 and DR4 were purified from culture supernatants of S2 drosophila cells transfected with DRB1*0101 or DRB1*0401 and DRA1*0101 as described previously. The cytoplasmic and transmembrane portions of these molecules were deleted from the cDNA using PCR, a new stop codon was inserted immediately prior to the transmembrane domain, and the resulting cDNA was cloned into the drosophila expression vector pRmHA-3. S2 cells were transfected with a 10:10:1 ratio of DRB1:DRA1:pUChsNeo using calcium phosphate precipitation. Soluble DR production was induced by 1 mM CuSO4, and 5 days later the culture supernatant was collected and adjusted to 0.05% octyl glucoside (OcG). Soluble DR was purified by passage of the supernatant over an affinity column coupled with the anti-DR antibody L227. The column was washed with 0.05% OcG and 0.15 M NaCl in phosphate buffer (PB), pH 7.5, followed by 0.05% OcG and 0.5M NaCl in PB, pH 7.5. DR was eluted with 100 mM Tris, 0.5M NaCl, pH 11.2, and the fractions were immediately neutralized with acetic acid. Recovered DR protein was concentrated using an EMD Millipore stirred cell with a YM30 disc membrane (Beverly, MA) and quantitated by OD 280 nm absorption and SDS-PAGE prior to use.
# (§2) For binding assays, a 10 nM solution of purified DR1 or DR4 was incubated for 18 h at 37° C with CII(257–274) peptide (0.5 nM) that had been labeled at the NH2 terminus with biotin as previously described. Various concentrations of peptides were added as competitors to the CII peptide binding. Bound peptides were separated from free peptides by immobilizing the DR molecules on microtiter plates coated with the monoclonal antibody L227 and subsequent washing. The antibody was adhered to the plate by an overnight incubation of a 10 μg/ml solution at 4° C. Bound biotinylated peptides were detected by incubation with streptavidin-europium followed by a chelating enhancement solution. Time resolved fluorescence was quantitated using a microplate fluorometer (FluoroMark, Bio-Rad, Hercules, CA), and data are expressed as relative fluorescence units measured. The 50% inhibitory concentration values (IC50) values were calculated from the binding curves and graphed as 1/IC50 to indicate affinity relative to the control peptide. Each binding assay was performed in duplicate, and data are representative of 3 experiments.
# (§3) Fig 1 Measurement of peptide binding to DRB1*01:01. 10 nM of soluble DR1 was incubated for 18 h at 37° C with 0.5 nM of biotinylated CII(257–274) peptide and various concentrations of WT and Cit-peptides as competitors. Bound peptides were separated from free peptides by immobilizing the DR molecules with an antibody on microtiter plates. Bound biotinylated peptide was detected by incubation with streptavidin-europium. Time resolved fluorescence was quantitated and data are expressed as relative fluorescence units measured. Each binding assay was performed in duplicate, and data are representative of 3 experiments.
# HLA-DR4 (DRB1*04:01) = molecular target: T2, HLA-DR4 (DRB1*04:01) (Homo sapiens, UniProt P01903+P01911, A100K/A169T/F76Y/I96L/K127E/L162R/M171V/N62H/P40V/Q125Y/R42H/S133A/S149N/S66Y/V115G/V209L/W38E); test: Competitive peptide binding assay to soluble HLA-DR4; details: for IC50: competition with 0.5 nM biotinylated CII(257–274), 10 nM soluble DR4, 18 h at 37° C
# T2 construct: a new stop codon was inserted immediately prior to the transmembrane domain; made in house; host or cells: Drosophila S2 cells, vector pRmHA-3, secreted, purified on an L227 antibody column
# Text: as §1, §2
# as §3, with “Fig 2” for “Fig 1”, “to DRB1*04:01.” for “to DRB1*01:01.”, “soluble DR4” for “soluble DR1”
# [1] = test system: lymph node T cells from B6.DR1 mice; test: Cytokine production by WT or Cit-peptide stimulated T cells (multiplexed bead assay); assay type: cell-based, mouse; parameters: key to Cytokine WT/Cit Ratio, TNFα: “–” values the result of no cytokine detected from the Cit-Ag or both antigens; details: T cells of mice immunized with the immunogen, calculated from Fig 5; for Cytokine WT/Cit Ratio, TNFα: WT over Cit stimulation, “>” = no TNFα produced by Cit-Ag stimulation; for Cytokine WT/Cit Ratio, IFNγ / Cytokine WT/Cit Ratio, IL-6 / Cytokine WT/Cit Ratio, IL-10 / Cytokine WT/Cit Ratio, IL-17A: WT-stimulated over Cit-stimulated, supernatant 3 days
# Protocol: Cytokines produced by WT and Cit-peptide stimulated T cells were measured using a multiplexed bead assay (BioRad) and analyzed using a BioRad MagPix. B6.DR1 mice were immunized with WT or Cit-peptide, and 10 days later LN cells were recovered and re-stimulated with the corresponding WT peptide or Cit-peptide. Supernatants were collected 3 days after stimulation and assayed for expression of IFNγ, TNFα, IL-10, IL-17A, and IL-6. Standard curves were used to calculate cytokine concentration. Data are representative of two independent experiments and based on duplicate samples.
# Fig 5 Cytokine production by T cells stimulated with WT or Cit-peptides. Supernatants from T cell proliferation assays in Fig 4 were collected 3 days after antigen stimulation and analyzed for the expression of proinflammatory cytokines. Cytokines produced were measured using a multiplexed bead assay and analyzed using a BioRad MagPix. Standard curves were used to calculate cytokine concentration. The cytokines produced by CII immunized T cells stimulated with the immunodominant epitope, CII(257–274), that drives autoimmune arthritis in the B6.DR1 model are shown for comparison (right panels). Data are representative of two independent experiments and based on duplicate samples.
# [2] = test system: B6.DR1 (HLA-DRB1*01:01 transgenic) mice; test: Induction of autoimmune arthritis in HLA-DR1 transgenic mice; assay type: in vivo, mouse
# Protocol: Citrullinated CII (Cit-CII) was produced using the method described by Lundberg et al. and Burkhardt et al.. 4 ml of CII at 0.25 mg/ml was dialyzed against citrullination buffer (0.1 M Tris-HCl pH 7.6, 10 mM CaCl2, 5 mM DTT), and 6.7 μl (8.5 μg, 33.4 U) of PAD4 (human recombinant, Cayman Chemical) was used to induce citrullination. Sham Cit-CII was produced using the same procedure without the PAD4 enzyme.
# For arthritis induction and T cell proliferation assays, 8 to 10 week old mice were immunized subcutaneously at the base of the tail with 100 μg of peptide or bovine CII emulsified in equal volumes of CFA consisting of 85% heavy paraffin oil (Fisher Scientific), 15% mannide mono-oleate (Sigma), and 4 mg/ml of heat killed mycobacterium (H37Ra, Difco). For arthritis studies, mice were examined 3 times per week starting at day 18 after immunization and the presence of arthritis, number of affected limbs, and the severity were assessed. Severity of disease was evaluated by visual inspection and assigned a score using a scale of 0 to 4 based on the degree of inflammation as described.
# Fig 8 Induction of autoimmune arthritis in HLA-DR1 mice with WT CII and Cit-CII. B6.DR1 mice were immunized with native CII or Cit-CII and the incidence (panel A) and severity (panels B, C, and D) of arthritis were monitored. […]
molecule,measurement,setting,value
NQDFTNRINKLKNS [Fib],IC50,HLA-DR1 (DRB1*01:01),> 4500 nM
same,binding to DR4 (in words),"HLA-DR4 (DRB1*04:01); up to 40,000:1 nM ratio of competitor:indicator peptide",essentially undetectable
same,"Cytokine WT/Cit Ratio, TNFα",[1],1.3
same,"Cytokine WT/Cit Ratio, IFNγ",[1],2.5
same,"Cytokine WT/Cit Ratio, IL-6",[1],1.1
same,"Cytokine WT/Cit Ratio, IL-10",[1],1.0
same,"Cytokine WT/Cit Ratio, IL-17A",[1],1.4
SAVRLRSSVPGVR [Vim],IC50,HLA-DR1 (DRB1*01:01),76.1 nM
VVLLVATEGRVRVNSAYQDK [Agg],IC50,HLA-DR1 (DRB1*01:01),110 nM
same,IC50,HLA-DR4 (DRB1*04:01),> 5000 nM
citrullinated CII: native bovine type II collagen protein treated with PAD4 to convert Arg to Cit,induction of autoimmune arthritis,[2]; DR1 Tg mice immunized with 100 μg in CFA,induced autoimmune arthritis
same,severity of arthritis compared with WT CII,"[2]; DR1 Tg mice, incidence, onset and severity score 0 to 4",no evidence that the disease was more severe than immunization with WT CII
CC(C)C[C@H](NC(=O)[C@H](CC(C)C)NC(=O)[C@@H](NC(=O)[C@@H](N)C(C)C)C(C)C)C(=O)N[C@H](C(=O)N[C@@H](C)C(=O)N[C@H](C(=O)N[C@@H](CCC(=O)O)C(=O)NCC(=O)N[C@@H](CCCNC(N)=O)C(=O)N[C@H](C(=O)N[C@@H](CCCNC(=N)N)C(=O)N[C@H](C(=O)N[C@@H](CC(N)=O)C(=O)N[C@@H](CO)C(=O)N[C@@H](C)C(=O)N[C@@H](Cc1ccc(O)cc1)C(=O)N[C@@H](CCC(N)=O)C(=O)N[C@@H](CC(=O)O)C(=O)N[C@@H](CCCCN)C(=O)O)C(C)C)C(C)C)[C@@H](C)O)C(C)C [cit-Agg] (H-VVLLVATEG[Cit]VRVNSAYQDK-OH),IC50,HLA-DR1 (DRB1*01:01),82.6 nM
same,IC50,HLA-DR4 (DRB1*04:01),> 5000 nM
CSCC[C@H](NC(=O)[C@H](Cc1ccc(O)cc1)NC(=O)[C@H](CCC(N)=O)NC(=O)[C@@H](N)CC(C)C)C(=O)N[C@@H](CCCNC(N)=O)C(=O)N[C@@H](C)C(=O)N[C@@H](CC(=O)O)C(=O)N[C@@H](CCC(N)=O)C(=O)N[C@@H](C)C(=O)N[C@@H](C)C(=O)NCC(=O)NCC(=O)N[C@@H](CC(C)C)C(=O)N[C@@H](CCCNC(=N)N)C(=O)O [cit-CII] (H-LQYM[Cit]ADQAAGGLR-OH),IC50,HLA-DR1 (DRB1*01:01),121 nM
same,IC50,HLA-DR4 (DRB1*04:01),170 nM
CC[C@H](C)[C@H](NC(=O)[C@H](CCCNC(N)=O)NC(=O)[C@H](CC(N)=O)NC(=O)[C@@H](NC(=O)[C@H](Cc1ccccc1)NC(=O)[C@H](CC(=O)O)NC(=O)[C@H](CCC(N)=O)NC(=O)[C@@H](N)CC(N)=O)[C@@H](C)O)C(=O)N[C@@H](CC(N)=O)C(=O)N[C@@H](CCCCN)C(=O)N[C@@H](CC(C)C)C(=O)N[C@@H](CCCCN)C(=O)N[C@@H](CC(N)=O)C(=O)N[C@@H](CO)C(=O)O [cit-Fib] (H-NQDFTN[Cit]INKLKNS-OH; N-terminus and C-terminus assumed),IC50,HLA-DR1 (DRB1*01:01),> 4500 nM
same,"Cytokine WT/Cit Ratio, TNFα",[1],–
same,"Cytokine WT/Cit Ratio, IFNγ",[1],0.2
same,"Cytokine WT/Cit Ratio, IL-6",[1],0.9
same,"Cytokine WT/Cit Ratio, IL-10",[1],0.3
same,"Cytokine WT/Cit Ratio, IL-17A",[1],1.0
LQYMRADQAAGGLR [CII],IC50,HLA-DR1 (DRB1*01:01),82.9 nM
same,IC50,HLA-DR4 (DRB1*04:01),37.4 nM
CC(C)C[C@H](NC(=O)[C@H](CCCNC(=N)N)NC(=O)[C@@H](NC(=O)[C@H](C)NC(=O)[C@@H](N)CO)C(C)C)C(=O)N[C@@H](CCCNC(N)=O)C(=O)N[C@@H](CO)C(=O)N[C@@H](CO)C(=O)N[C@H](C(=O)N1CCC[C@H]1C(=O)NCC(=O)N[C@H](C(=O)N[C@@H](CCCNC(=N)N)C(=O)O)C(C)C)C(C)C [cit-Vim] (H-SAVRL[Cit]SSVPGVR-OH),IC50,HLA-DR1 (DRB1*01:01),1.1 nM
